Consider 15 molecules from US11535598B2, “Histone deacetylases (HDACs) inhibitors” (ANNJI PHARMACEUTICAL CO., LTD., priority 2017, dated 2022).

A word on the IC50: it is the concentration that gives 50% inhibition.

One series has as its target Human HDAC11 (Homo sapiens (Human), UniProt Q96DB2). Briefly: HDAC enzymatic assay, HDAC11. The following applies: 10-dose IC50 mode with a 3-fold serial dilution; read-out: HDAC subtypes IC50 HDAC11. The class given is biochemical. As for the experimental part:
(§1) The IC50 values for aforementioned compounds against HDACs were determined. HDAC 1 to 11 can be assayed by using acetylated AMC-labeled peptide substrate.
(§2) Human HDAC1 GenBank Accession No. NM_004964): Full length with C-terminal GST tag, MW=79.9 kDa, Human HDAC2 (GenBank Accession No. Q92769): Full length with C-terminal His tag, MW=60 kDa. Human HDAC3/NcoR2 (GenBank Accession No. […] for HDAC3, GenBank Accession No. NM_006312 for NcoR2): Complex of human HDAC3, full length with C-terminal His tag, MW=49.7 kDa, and human NCOR2, N-terminal GST tag, MW=39 kDa. Human HDAC6 (GenBank Accession No. BC069243): Full length with N-terminal GST tag, MW=159 kDa. Human HDAC8 (GenBank Accession No. NM018486): Full length, MW=42 kDa, expressed in an E. coli expression system.
(§3) Human HDAC1, Human HDAC2, Human HDAC3/NcoR2, Human HDAC6, Human HDAC10, and Human HDAC11 were all expressed by baculovirus expression system in Sf9 cells.
(§4) 50 μM HDAC substrate. 1% DMSO final. Incubation for 2 hours at 30° C.

The next series concerns the target Human HDAC6 (Homo sapiens (Human), UniProt Q9UBN7). Nature of the series: HDAC enzymatic assay, HDAC6. The following applies: 10-dose IC50 mode with a 3-fold serial dilution; read-out: HDAC subtypes IC50 HDAC6. The class given is biochemical. As for the experimental part:
as §1, §2, §3, §4

Another series concerns the target Human HDAC8 (Homo sapiens (Human), UniProt Q9BY41). Briefly: HDAC enzymatic assay, HDAC8. The class given is biochemical. The following applies: 10-dose IC50 mode with a 3-fold serial dilution; read-out: HDAC subtypes IC50 HDAC8. The method, then: as §1, §2, §4
In another series the target is Human HDAC1 (Homo sapiens (Human), UniProt Q13547). Nature of the series: HDAC enzymatic assay, HDAC1. The following applies: 10-dose IC50 mode with a 3-fold serial dilution; read-out: HDAC subtypes IC50 HDAC1. The class given is biochemical. The method, then:
as §1, §2, §3, §4

For a further series, the system named is LNCap. Conditions: human, 72 h.
A further series concerns U87MG. Conditions: human, 72 h.
In the next series the test system is PANC1. Conditions: human, 72 h.
Series [1] is described as follows: in vitro. The following applies: human.
Method: (§5) Cells were seeded in 96-well plates at a density of 5×10^3 cells per well and allowed to attach for 24 h before compound treatment. […] At end of the treatment period 72 h, 20 μl (5 mg/mL) 3-(4,5-dimethylthiazol-2-yl)-2,5-diphenyl-tetrazolium bromide (MTT) reagent was added each well. After 4 h incubation at 37° C., the supernatant was aspirated and the formazan crystals were dissolved in 100 μl of DMSO at 37° C. for 10 min with gentle agitation. The absorbance was measured at 570 nm using the Molecular Devices Microplate Reader. […] IC50 values were calculated from the relative viability values and concentrations by regression analysis.
Another series concerns A549. The following applies: human, 72 h.
A short description of series [2]: in vitro. The following applies: monkey.
Method: as §5
Another series concerns HepG2. The following applies: human, 72 h.

Sequence of Human HDAC6 (Q9UBN7 whole entry): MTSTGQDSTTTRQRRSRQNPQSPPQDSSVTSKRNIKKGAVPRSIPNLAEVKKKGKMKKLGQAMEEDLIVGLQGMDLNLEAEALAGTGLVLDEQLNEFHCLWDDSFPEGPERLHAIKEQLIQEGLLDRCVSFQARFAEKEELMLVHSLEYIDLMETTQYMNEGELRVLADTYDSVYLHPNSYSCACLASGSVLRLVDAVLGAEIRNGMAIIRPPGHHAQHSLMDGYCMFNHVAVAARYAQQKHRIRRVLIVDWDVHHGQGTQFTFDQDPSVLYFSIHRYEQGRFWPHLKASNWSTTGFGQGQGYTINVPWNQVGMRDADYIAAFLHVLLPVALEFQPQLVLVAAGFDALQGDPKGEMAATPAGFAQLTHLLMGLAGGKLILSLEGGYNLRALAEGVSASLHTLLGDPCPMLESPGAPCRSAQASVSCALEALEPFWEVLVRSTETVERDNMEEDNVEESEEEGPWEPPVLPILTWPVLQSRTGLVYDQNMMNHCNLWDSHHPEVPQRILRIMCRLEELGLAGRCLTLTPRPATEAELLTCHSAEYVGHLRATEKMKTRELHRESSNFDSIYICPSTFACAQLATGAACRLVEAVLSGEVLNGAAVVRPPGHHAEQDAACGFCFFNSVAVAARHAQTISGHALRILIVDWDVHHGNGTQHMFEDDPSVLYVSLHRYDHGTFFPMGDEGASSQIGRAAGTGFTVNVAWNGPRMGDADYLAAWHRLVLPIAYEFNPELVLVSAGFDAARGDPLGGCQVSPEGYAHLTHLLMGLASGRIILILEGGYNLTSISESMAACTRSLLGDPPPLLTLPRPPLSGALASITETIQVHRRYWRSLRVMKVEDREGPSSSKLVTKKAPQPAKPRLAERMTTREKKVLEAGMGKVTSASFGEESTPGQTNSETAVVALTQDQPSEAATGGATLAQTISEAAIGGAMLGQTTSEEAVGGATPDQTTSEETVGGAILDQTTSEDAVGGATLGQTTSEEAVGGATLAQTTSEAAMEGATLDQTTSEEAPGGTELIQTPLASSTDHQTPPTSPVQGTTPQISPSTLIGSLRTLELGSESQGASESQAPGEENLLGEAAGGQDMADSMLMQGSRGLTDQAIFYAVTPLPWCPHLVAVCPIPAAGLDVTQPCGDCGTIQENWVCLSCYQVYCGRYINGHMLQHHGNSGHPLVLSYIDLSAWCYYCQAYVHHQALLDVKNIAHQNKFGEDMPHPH
Sequence of Human HDAC8 (Q9BY41 whole entry): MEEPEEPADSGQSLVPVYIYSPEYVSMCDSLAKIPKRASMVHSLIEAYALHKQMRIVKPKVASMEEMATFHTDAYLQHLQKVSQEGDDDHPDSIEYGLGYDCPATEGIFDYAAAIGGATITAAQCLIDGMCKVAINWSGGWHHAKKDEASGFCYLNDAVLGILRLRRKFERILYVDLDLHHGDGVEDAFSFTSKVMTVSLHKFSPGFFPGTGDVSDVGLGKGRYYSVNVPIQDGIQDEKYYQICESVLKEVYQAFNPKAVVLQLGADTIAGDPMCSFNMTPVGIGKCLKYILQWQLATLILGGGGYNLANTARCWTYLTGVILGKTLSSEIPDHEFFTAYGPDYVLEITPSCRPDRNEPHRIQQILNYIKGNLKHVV
Sequence of Human HDAC1 (Q13547 whole entry): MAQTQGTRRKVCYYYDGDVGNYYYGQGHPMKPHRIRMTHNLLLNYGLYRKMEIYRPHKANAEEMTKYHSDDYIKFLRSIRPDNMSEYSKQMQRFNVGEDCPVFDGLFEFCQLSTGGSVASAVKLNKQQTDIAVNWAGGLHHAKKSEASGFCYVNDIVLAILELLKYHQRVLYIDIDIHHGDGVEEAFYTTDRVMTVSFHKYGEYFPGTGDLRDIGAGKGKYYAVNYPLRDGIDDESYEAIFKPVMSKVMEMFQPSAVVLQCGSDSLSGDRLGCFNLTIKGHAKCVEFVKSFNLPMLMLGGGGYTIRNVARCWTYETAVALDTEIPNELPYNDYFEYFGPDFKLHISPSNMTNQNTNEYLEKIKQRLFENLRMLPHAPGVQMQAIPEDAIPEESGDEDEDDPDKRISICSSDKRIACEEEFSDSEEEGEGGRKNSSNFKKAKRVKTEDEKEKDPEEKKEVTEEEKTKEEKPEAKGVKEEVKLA
Sequence of Human HDAC11 (Q96DB2 whole entry): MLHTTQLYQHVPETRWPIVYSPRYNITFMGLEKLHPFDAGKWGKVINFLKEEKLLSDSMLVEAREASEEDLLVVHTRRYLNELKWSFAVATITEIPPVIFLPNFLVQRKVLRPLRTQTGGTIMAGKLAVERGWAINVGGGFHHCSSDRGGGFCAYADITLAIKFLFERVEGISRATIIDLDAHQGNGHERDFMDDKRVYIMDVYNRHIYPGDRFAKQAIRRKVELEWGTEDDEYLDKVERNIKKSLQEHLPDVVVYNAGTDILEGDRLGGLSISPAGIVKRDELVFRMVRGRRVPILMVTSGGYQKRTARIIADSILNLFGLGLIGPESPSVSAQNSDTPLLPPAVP
Method for A549: as §5
Method for HepG2: as §5
Method for LNCap: as §5
Method for PANC1: as §5
Method for U87MG: as §5

As for `O=C(NO)c1ccc(Cn2c(=O)n(CCc3ccccc3)c(=O)c3ccc(F)cc32)cc1` [Compound 1, 4-((7-fluoro-2,4-dioxo-3-phenethyl-3,4-dihydroquinazolin-1(2H)-yl)methyl)-N-hydroxybenzamide], the IC50 at Human HDAC11 came out at 15.4 µM; at Human HDAC6, 0.008 µM; at Human HDAC8 it was 0.095 µM; on Human HDAC1 it was 9.41 µM.
In the case of `COc1ccc2c(=O)n(CCc3ccccc3)c(=O)n(Cc3ccc(C(=O)NO)cc3)c2c1` [Compound 2, N-hydroxy-4-((7-methoxy-2,4-dioxo-3-phenethyl-3,4-dihydroquinazol-1(2H)-yl)methyl)benzamide], the IC50 was above 10 µM with LNCap; 0.051 µM at Human HDAC6; above 10 µM in the series with U87MG; above 10 µM in the series with PANC1; above 10 µM in the series with A549; 0.731 µM at Human HDAC8. Besides, the IC50 on Human HDAC1 is 12 µM; in the series on HepG2, above 10 µM. For the same molecule, the IC50 at 72 h is above 200 µM in “in vitro [1]” and above 10 µM in the series “in vitro [2]”.
`O=C(NO)c1cccc(Cn2c(=O)n(CCc3ccccc3)c(=O)c3ccccc32)c1` [Compound 6, 3-((2,4-dioxo-3-phenethyl-3,4-dihydroquinazolin-1(2H)-yl)methyl)-N-hydroxybenzamide]: the concentration for half-maximal inhibition (IC50) in the series on LNCap is 3.4 ± 0.21 µM; on Human HDAC11 it was above 10 µM; on Human HDAC6, 4.3 µM; in the series on U87MG, 3.75 ± 0.13 µM; in the series on PANC1 it was 5.12 ± 0.32 µM; in the series on A549 it was 4.03 ± 0.12 µM. In addition, the IC50 at Human HDAC8 was 0.653 µM; on Human HDAC1, above 10 µM; with HepG2, 3.41 ± 0.34 µM. Further, the IC50 at 72 h in “in vitro [1]” was 69.23 ± 0.27 µM; in “in vitro [2]”, 78.42 ± 0.22 µM.
As to `N#Cc1ccc2c(=O)n(CCc3ccccc3)c(=O)n(Cc3cccc(C(=O)NO)c3)c2c1` [Compound 7, 3-((7-cyano-2,4-dioxo-3-phenethyl-3,4-dihydroquinazolin-1(2H)-yl)methyl)-N-hydroxybenzamide], the IC50 on Human HDAC6 is 4.45 µM; on Human HDAC8 it was 0.235 µM; on Human HDAC1, above 10 µM.
Take `Cn1c(=O)c2ccc(Cl)cc2n(Cc2ccc(C(=O)NO)cc2)c1=O` [Compound 10, 4-((7-chloro-3-methyl-2,4-dioxo-3,4-dihydroquinazolin-1(2H)-yl)methyl)-N-hydroxybenzamide]: the IC50 in the series on LNCap came out at 4.72 ± 0.16 µM; on Human HDAC6, 0.004 µM; in the series on U87MG it was 7.63 ± 0.12 µM; in the series with PANC1 it was 9.04 ± 0.21 µM; in the series with A549, 8.15 ± 0.17 µM; on Human HDAC8, 0.523 µM. For the same molecule, the IC50 at Human HDAC1 amounted to 2.72 µM; with HepG2, 6.65 ± 0.22 µM. The IC50 at 72 h amounted to 85.33 ± 0.34 µM in “in vitro [1]” and 93.24 ± 0.37 µM in the series “in vitro [2]”.
On to `O=C(NO)c1ccc(Cn2c(=O)n(Cc3ccccc3)c(=O)c3ccccc32)cc1` [Compound 11, 4-((3-benzyl-2,4-dioxo-3,4-dihydroquinazolin-1(2H)-yl)methyl)-N-hydroxybenzamide], for which the IC50 in the series on LNCap was found to be 2.93 ± 0.62 µM; at Human HDAC11 it was 37.5 µM; on Human HDAC6 it was 0.024 µM; in the series with U87MG, 4.08 ± 0.11 µM; with PANC1, 6.13 ± 0.17 µM; with A549, 4.78 ± 0.11 µM. Besides, the IC50 was found to be 0.486 µM on Human HDAC8, 15.8 µM at Human HDAC1 and 4.39 ± 0.07 µM in the series on HepG2. Besides, the IC50 at 72 h was 89.18 ± 0.62 µM in “in vitro [1]” and 97.25 ± 0.31 µM in “in vitro [2]”.
For the molecule `O=C(NO)c1ccc(Cn2c(=O)n(CCc3ccccc3)c(=O)c3cccnc32)cc1` [Compound 12, 4-((2,4-dioxo-3-phenethyl-3,4-dihydropyrido[2,3-d]pyrimidin-1(2H)-yl)methyl)-N-hydroxybenzamide], the IC50 in the series with LNCap was 7.53 ± 0.23 µM; at Human HDAC11, 25.1 µM; on Human HDAC6, 0.028 µM; in the series with U87MG it was 9.12 ± 0.23 µM; with PANC1 it was above 10 µM; with A549, above 10 µM. For the same molecule, the results for the IC50 at Human HDAC8, at Human HDAC1 and with HepG2 were 1.07 µM, 11.2 µM and above 10 µM, respectively. The IC50 at 72 h in the series “in vitro [1]” turned out to be 159.1 ± 0.44 µM; in “in vitro [2]” it was 166.4 ± 0.39 µM.
Regarding `O=C(NO)c1ccc(Cn2c(=O)n(CCc3ccccc3O)c(=O)c3ccccc32)cc1` [Compound 18, N-hydroxy-4-((3-(2-hydroxyphenethyl)-2,4-dioxo-3,4-dihydroquinazolin-1(2H)-yl)methyl)benzamide], the IC50 on Human HDAC11 is 16.7 µM; at Human HDAC6, 0.006 µM; at Human HDAC8 it was 0.4 µM; on Human HDAC1, 8.83 µM.
`O=C(NO)C(F)(F)c1ccc(Cn2c(=O)n(CCc3ccccc3)c(=O)c3ccccc32)cc1` [Compound 20, 2-(4-((2,4-dioxo-3-phenethyl-3,4-dihydroquinazolin-1(2H)-yl)methyl)phenyl)-2,2-difluoro-N-hydroxyacetamide]: the 50% inhibitory concentration (IC50) with LNCap is 9.97 ± 0.08 µM; with U87MG, 9.67 ± 0.66 µM; in the series with PANC1, above 10 µM; in the series on A549 it was above 10 µM; with HepG2, 7.43 ± 0.27 µM. The IC50 at 72 h in the series “in vitro [1]” and in the series “in vitro [2]” was above 200 µM each time.
As to `O=C(NO)c1ccc(Cn2c(=O)n(CCc3ccccc3)c(=O)c3ccsc32)cc1` [Compound 21, 4-((2,4-dioxo-3-phenethyl-3,4-dihydrothieno[2,3-d]pyrimidin-1(2H)-yl)methyl)-N-hydroxybenzamide], the IC50 stood at 0.98 ± 0.06 µM in the series with LNCap; 5.69 µM on Human HDAC11; 0.015 µM on Human HDAC6; 2.93 ± 0.13 µM in the series on U87MG; 4.72 ± 0.37 µM with PANC1; 3.22 ± 0.31 µM in the series with A549. Further, the IC50 on Human HDAC8 was 0.169 µM; on Human HDAC1 it was 6.66 µM; in the series with HepG2, 3.55 ± 0.14 µM. Also, the IC50 at 72 h was determined as 63.11 ± 0.17 µM in “in vitro [1]” and 81.51 ± 0.18 µM in the series “in vitro [2]”.
`O=C(NO)c1ccc(Cn2c(=O)n(CCc3cccs3)c(=O)c3ccccc32)cc1` [Compound 24, 4-((2,4-dioxo-3-(2-(thiophen-2-yl)ethyl)-3,4-dihydroquinazolin-1(2H)-yl)methyl)-N-hydroxybenzamide]: the IC50 is 3.83 ± 0.17 µM in the series on LNCap; 10 µM on Human HDAC11; 0.011 µM at Human HDAC6; 4.18 ± 0.22 µM in the series with U87MG; above 10 µM with PANC1; 4.69 ± 0.17 µM in the series on A549. The IC50 is 0.287 µM at Human HDAC8, 10.7 µM on Human HDAC1 and 4.11 ± 0.27 µM in the series with HepG2. The 50% inhibitory concentration (IC50) at 72 h in “in vitro [1]” turned out to be 60.41 ± 0.22 µM; in “in vitro [2]”, 76.31 ± 0.32 µM.
With `O=C(NO)c1cc(Cn2c(=O)n(CCc3ccccc3)c(=O)c3ccccc32)cs1` [Compound 25, 4-((2,4-dioxo-3-phenethyl-3,4-dihydroquinazolin-1(2H)-yl)methyl)-N-hydroxythiophene-2-carboxamide], the 50% inhibitory concentration (IC50) in the series on LNCap worked out at 5.77 ± 0.46 µM; on Human HDAC11, 129 µM; at Human HDAC6, 1.19 µM; in the series on U87MG, 5.23 ± 0.21 µM; in the series on PANC1, 8.13 ± 0.28 µM; in the series with A549, 6.25 ± 0.33 µM. In addition, the IC50 is 1.19 µM at Human HDAC8, above 30 µM on Human HDAC1 and 5.31 ± 0.37 µM with HepG2. For the same molecule, the results for the IC50 at 72 h in the series “in vitro [1]” and in the series “in vitro [2]” were 105.1 ± 0.25 µM and 106.3 ± 0.29 µM, respectively.
Take `O=C(NO)c1ccc(Cn2c(=O)n(CCc3ccccc3)c(=O)c3ccc(C4CC4)cc32)cc1` [Compound 27, 4-((7-cyclopropyl-2,4-dioxo-3-phenethyl-3,4-dihydroquinazolin-1(2H)-yl)methyl)-N-hydroxybenzamide]: the IC50 was determined as 10.5 µM at Human HDAC11, 0.168 µM on Human HDAC6, 3.06 µM at Human HDAC8 and 14.5 µM on Human HDAC1.
With `CNc1ccc(CCn2c(=O)c3ccccc3n(Cc3ccc(C(=O)NO)cc3)c2=O)cc1` [Compound 29, N-hydroxy-4-((3-(4-(methylamino)phenethyl)-2,4-dioxo-3,4-dihydroquinazolin-1(2H)-yl)methyl)benzamide], the IC50 at Human HDAC11 turned out to be 3.8 µM; at Human HDAC6, 0.025 µM; on Human HDAC8 it was 1.42 µM; on Human HDAC1, 4.38 µM.
As for `O=C(NO)c1ccc(Cn2c(=O)n(CCc3ccc(N4CCOCC4)cc3)c(=O)c3ccccc32)cc1` [Compound 30, N-hydroxy-4-((3-(4-morpholinophenethyl)-2,4-dioxo-3,4-dihydroquinazolin-1(2H)-yl)methyl)benzamide], the IC50 at Human HDAC11 was 22.8 µM; at Human HDAC6, 0.014 µM; on Human HDAC8, 0.979 µM; at Human HDAC1 it was 9.79 µM.
